Patent US20240132464A1, “HETEROCYCLIC COMPOUNDS AS E3 LIGASE INHIBITORS” (Accutar Biotechnology Inc., priority 2022, published 2024)
pIC50: −log10 of the molar value.

target: T1, GID4 (Uniprot ID: Q81VV7, residues 124-289) (Homo sapiens, UniProt Q8IVV7); assay: GID4 competitive binding assay (AlphaScreen, GID4/degron peptide PGLW); conditions: 24 nM GID4, 48 nM biotinylated degron peptide PGLW, 4° C., read-out: IC50 (Inhibition of GID4/Degron binding by test compounds)
T1 construct: GID4 (Uniprot ID: Q81VV7, residues 124-289)
T1 sequence (Q8IVV7 124-289): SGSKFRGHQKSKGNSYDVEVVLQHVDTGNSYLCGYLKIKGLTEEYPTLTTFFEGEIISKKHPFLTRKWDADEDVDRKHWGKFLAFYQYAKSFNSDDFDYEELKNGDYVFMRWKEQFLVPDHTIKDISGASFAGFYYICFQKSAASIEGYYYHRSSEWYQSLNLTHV
Outline: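 Displacement of biotin-tagged degron tetrapeptide PGLW (48 nM) from C-terminally 6His-tagged GID4 124-289 (24 nM) read by AlphaScreen proximity signal. Compound incubation 2 h, then beads 1 h, all at 4 °C, pH 7.5, 2% DMSO final; background-corrected inhibition fitted with variable slope for IC50.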

Row | Structure (SMILES) | pIC50
1 | CC(C)c1cc(N2CCOC(c3ccccc3Br)C2)nc(N)n1 (single isomer, unassigned) [Compound 159, (S/R)-4-(2-(2-bromophenyl)morpholino)-6-isopropylpyrimidin-2-amine] | 5.30 to 6.30
2 | CC(C)c1cc(N2CC[C@@H](F)[C@@H](c3ccccc3Br)C2)nc(N)n1 [Compound 221, 4-((3S,4R)-3-(2-bromophenyl)-4-fluoropiperidin-1-yl)-6-isopropylpyrimidin-2-amine] | > 6.30
3 | Cc1cc(N2CCCC(Nc3ccc(=O)[nH]c3)C2)nc(N)n1 (centres unmarked) [Compound 202, 5-((1-(2-amino-6-methylpyrimidin-4-yl)piperidin-3-yl)amino)pyridin-2(1H)-one] | < 5.30
4 | Nc1nccc2ccc(-c3ccc4[nH]nc(C(=O)N5CCC(N)CC5)c4c3)cc12 [Compound 339, (5-(1-aminoisoquinolin-7-yl)-1H-indazol-3-yl)(4-aminopiperidin-1-yl)methanone] | > 6.30
5 | CNc1cc(N2CCN[C@@H](c3ccccc3Br)C2)nc(NC)n1 (stereo in doubt) [Compound 130, (S/R)-6-(3-(2-bromophenyl)piperazin-1-yl)-N2,N4-dimethylpyrimidine-2,4-diamine] | < 5.30
6 | Cn1nccc1-c1cc(N2CC3CCC(C2)N3)nc2c(-c3cc[nH]n3)nccc12 [Compound 364, 2-(3,8-diazabicyclo[3.2.1]octan-3-yl)-4-(1-methyl-1H-pyrazol-5-yl)-8-(1H-pyrazol-3-yl)-1,7-naphthyridine] | < 5.30
7 | Nc1cc(N2CCOC(c3cnc4ccccn34)C2)nc(N)n1 (single isomer, unassigned) [Compound 137, (S/R)-6-(2-(imidazo[1,2-a]pyridin-3-yl)morpholino)pyrimidine-2,4-diamine] | < 5.30
8 | CC(C)c1cc(N2CCNC(c3cc(N4CC(CO)C4)ccc3Br)C2)nc(N)n1 (single isomer, unassigned) [Compound 30, (R/S)-(1-(3-(4-(2-amino-6-isopropylpyrimidin-4-yl)piperazin-2-yl)-4-bromophenyl)azetidin-3-yl)methanol] | > 6.30
9 | CNc1cc(N2CCCC(n3ncc4ccccc43)C2)nc(N)n1 (centres unmarked) [Compound 254, 6-(3-(1H-indazol-1-yl)piperidin-1-yl)-N4-methylpyrimidine-2,4-diamine] | < 5.30
10 | CNc1cc(N2CCNC(c3csc4ccccc34)C2)nc(N)n1 (centres unmarked) [Compound 102, 6-(3-(benzo[b]thiophen-3-yl)piperazin-1-yl)-N4-methylpyrimidine-2,4-diamine] | 5.30 to 6.30
11 | Nc1nc2c(c(N3CCNC(c4ccccc4Br)C3)n1)COCC2 (centres unmarked) [Compound 184, 4-(3-(2-bromophenyl)piperazin-1-yl)-7,8-dihydro-5H-pyrano[4,3-d]pyrimidin-2-amine] | 5.30 to 6.30
12 | Nc1cc(N2CCCC(c3cnc4ccccn34)C2)nc(N)n1 (single isomer, unassigned) [Compound 115, (S/R)-6-(3-(imidazo[1,2-a]pyridin-3-yl)piperidin-1-yl)pyrimidine-2,4-diamine] | < 5.30
13 | CN(C)[C@H]1C[C@@H](NC(=O)c2ccc(-c3cc(O)c4ncccc4c3)cc2)C1 [Compound 279, N-(cis-3-(dimethylamino)cyclobutyl)-4-(8-hydroxyquinolin-6-yl)benzamide] | > 6.30
14 | Nc1nc(NCC2CC2)cc(N2CCNC(c3ccccc3Br)C2)n1 (single isomer, unassigned) [Compound 111, (R/S)-6-(3-(2-bromophenyl)piperazin-1-yl)-N4-(cyclopropylmethyl)pyrimidine-2,4-diamine] | 5.30 to 6.30
15 | CC(C)c1cc(N2CCCC(c3cnc4ccccn34)C2)ncn1 (racemic) [Compound 148, (R/S)-3-(1-(6-isopropylpyrimidin-4-yl)piperidin-3-yl)imidazo[1,2-a]pyridine] | < 5.30
16 | CN1CCN(c2cc(N)nc(N)n2)C[C@@H]1c1ccccc1Br (racemic) [Compound 144, (S/R)-6-(3-(2-bromophenyl)-4-methylpiperazin-1-yl)pyrimidine-2,4-diamine] | < 5.30
17 | CN(C)CCCNC(=O)c1nnc(-c2cc(O)c3ncccc3c2)[nH]1 [Compound 262, N-(3-(dimethylamino)propyl)-5-(8-hydroxyquinolin-6-yl)-4H-1,2,4-triazole-3-carboxamide] | > 6.30
18 | CC(C)Nc1nc(C(C)C)cc(N2CCNC(c3ccccc3Br)C2)n1 (single isomer, unassigned) [Compound 151, (R/S)-4-(3-(2-bromophenyl)piperazin-1-yl)-N,6-diisopropylpyrimidin-2-amine] | < 5.30
19 | Nc1nc(C2CC2)cc(N2CCN[C@H](c3ccccc3Br)C2)n1 (stereo in doubt) [Compound 132, (R/S)-4-(3-(2-bromophenyl)piperazin-1-yl)-6-cyclopropylpyrimidin-2-amine] | 5.30 to 6.30
20 | Nc1nc2c(c(N3CCCC(c4nnc5ccccn45)C3)n1)SCC2 (centres unmarked) [Compound 191, 4-(3-([1,2,4]triazolo[4,3-a]pyridin-3-yl)piperidin-1-yl)-6,7-dihydrothieno[3,2-d]pyrimidin-2-amine] | < 5.30
21 | CNc1cc(N2CCCC(c3cnc4ccccn34)C2)nc(NC)n1 (racemic) [Compound 123, (S/R)-6-(3-(imidazo[1,2-a]pyridin-3-yl)piperidin-1-yl)-N2,N4-dimethylpyrimidine-2,4-diamine] | 5.30 to 6.30
22 | Nc1nccc2ccc(-c3ccc4[nH]nc(C(=O)NC[C@H]5CC[C@@H](O)CC5)c4c3)cc12 [Compound 333, 5-(1-aminoisoquinolin-7-yl)-N-((cis-4-hydroxycyclohexyl)methyl)-1H-indazole-3-carboxamide] | > 6.30
23 | Nc1nccc2ccc(-c3ccc4[nH]ncc4c3)cc12 [Compound 361, 7-(1H-indazol-5-yl)isoquinolin-1-amine] | > 6.30
24 | CC(C)c1nc(N)cc(N2CCCC(c3cnc4ccccn34)C2)n1 (single isomer, unassigned) [Compound 141, R or S-6-(3-(imidazo[1,2-a]pyridin-3-yl)piperidin-1-yl)-2-isopropylpyrimidin-4-amine] | > 6.30
25 | Nc1nc(N2CCNC(c3cnc4ccccn34)C2)c2[nH]ccc2n1 (centres unmarked) [Compound 55, 4-(3-(imidazo[1,2-a]pyridin-3-yl)piperazin-1-yl)-5H-pyrrolo[3,2-d]pyrimidin-2-amine] | 5.30 to 6.30

Next, values leading:

Row | pIC50 | Structure (SMILES)
26 | 5.30 to 6.30 | Brc1ccccc1C1CN(c2ccnc3[nH]cnc23)CCN1 (single isomer, unassigned) [Compound 35, (R/S)-7-(3-(2-bromophenyl)piperazin-1-yl)-3H-imidazo[4,5-b]pyridine]
27 | 5.30 to 6.30 | CN(C)CCCNC(=O)c1ccc(-c2cc(O)c3nccc(N)c3c2)cc1 [Compound 265, 4-(4-amino-8-hydroxyquinolin-6-yl)-N-(3-(dimethylamino)propyl)benzamide]
28 | < 5.30 | Cc1nc(N)nc(N2CCCC(c3ccn[nH]3)C2)c1C (centres unmarked) [Compound 214, 4-(3-(1H-pyrazol-5-yl)piperidin-1-yl)-5,6-dimethylpyrimidin-2-amine]
29 | 5.30 to 6.30 | CNc1cc(N2CCN(C)[C@@H](c3ccccc3Br)C2)nc(NC)n1 (stereo in doubt) [Compound 81, (S/R)-6-(3-(2-bromophenyl)-4-methylpiperazin-1-yl)-N2,N4-dimethylpyrimidine-2,4-diamine]
30 | 5.30 to 6.30 | CCOc1ccc(Br)c(C2CN(c3cc(N)nc(N)n3)CCN2)c1 (single isomer, unassigned) [Compound 23, (R/S)-6-(3-(2-bromo-5-ethoxyphenyl)piperazin-1-yl)pyrimidine-2,4-diamine]
31 | > 6.30 | CNc1cc(N2CCCC(c3cnc4ccccn34)C2)nc(C(C)C)n1 (single isomer, unassigned) [Compound 126, (R/S)-6-(3-(imidazo[1,2-a]pyridin-3-yl)piperidin-1-yl)-2-isopropyl-N-methylpyrimidin-4-amine]
32 | 5.30 to 6.30 | CN(C)C(=O)CCC1CCCN(c2nc(N)nc3c2CCCN3)C1 (centres unmarked) [Compound 135, 3-(1-(2-amino-5,6,7,8-tetrahydropyrido[2,3-d]pyrimidin-4-yl)piperidin-3-yl)-N,N-dimethylpropanamide]
33 | 5.30 to 6.30 | CC(C)c1cc(-c2cc(-c3ccnn3C)c3cccc(-c4cc[nH]n4)c3n2)cc(N)n1 [Compound 367, 6-isopropyl-4-(4-(1-methyl-1H-pyrazol-5-yl)-8-(1H-pyrazol-3-yl)quinolin-2-yl)pyridin-2-amine]
34 | 5.30 to 6.30 | Nc1cc(N2CCCC(F)(c3ccccc3Br)C2)nc(N)n1 (centres unmarked) [Compound 228, 6-(3-(2-bromophenyl)-3-fluoropiperidin-1-yl)pyrimidine-2,4-diamine]
35 | < 5.30 | Nc1nc(NC2CC2)cc(N2CCNC(c3ccccc3Br)C2)n1 (single isomer, unassigned) [Compound 121, (R/S)-6-(3-(2-bromophenyl)piperazin-1-yl)-N4-cyclopropylpyrimidine-2,4-diamine]
36 | < 5.30 | Nc1nc(NC2CC2)nc(N2CCN[C@H](c3ccccc3Br)C2)n1 (stereo in doubt) [Compound 64, (R/S)-6-(3-(2-bromophenyl)piperazin-1-yl)-N2-cyclopropyl-1,3,5-triazine-2,4-diamine]
37 | 5.30 to 6.30 | CNc1cc(N2CCN(C)[C@H](c3ccccc3Br)C2)nc(NC)n1 (stereo in doubt) [Compound 80, (R/S)-6-(3-(2-bromophenyl)-4-methylpiperazin-1-yl)-N2,N4-dimethylpyrimidine-2,4-diamine]
38 | > 6.30 | CC(C)c1cc(N2CCNC(c3ccccc3I)C2)nc(N)n1 (centres unmarked) [Compound 176, 4-(3-(2-iodophenyl)piperazin-1-yl)-6-isopropylpyrimidin-2-amine]
